{
  "source": "patent US11458171B2",
  "about": "“Engineering stem cells for cancer therapy” (CHINA MEDICAL UNIVERSITY, priority 2018, dated 2022)",
  "tested_on": "UMSCs",
  "experiment": "Effect of GCV on plain UMSCs",
  "format": "cell-based, human",
  "conditions": "GCV alone on unmodified UMSCs",
  "data": [
    {"smiles": "Nc1nc(O)c2ncn(COC(CO)CO)c2n1", "note": "[GCV, ganciclovir]", "values": [
      {"measurement": "cell proliferation of UMSCs", "value": "did not affect cell proliferation"}
    ]}
  ]
}
